Experimental data taken from patent publication US20250101436A1, “APTAMERS AND SMALL MOLECULE LIGANDS” (MeiraGTx UK II Limited, priority 2021, published 2025).

tested on: luciferase gene expression in HEK 293 cells in response to Comp. 004; test: Screen of riboswitch constructs with 12C6-1 variant aptamers (libraries N1-N5) against Comp. 004, luciferase in HEK 293 cells; format: cell-based, human; conditions: library N5 variant aptamers (L5, X16-X21 randomized) of 12C6-1 in riboswitch constructs; in response to Comp. 004 treatment; HEK 293 cells
Outline: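 Riboswitch constructs carrying 12C6-1 aptamer variants, randomized in J2-4, J2-3/J3-3a/J3a-2/P3, L3a, J4-5/J5-4/P4 or L5 regions (libraries N1-N5), cloned into an intron-exon-intron cassette driving luciferase. Screened in HEK 293 cells with 25 µM Comp. 004; read-out is fold induction of gene expression versus parent Luci-12C6-1.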

Substance	Fold (induction of luciferase gene expression) [fold]
N5_1C5 (CTGGGGAGTCCT; chemistry not given here)	966.1
N5_1C7 (CTGGGGAGTCCT; chemistry not given here)	485.7
N5_1C9 (CTGGGGAGTCCT; chemistry not given here)	915.3
N5_1C10 (CTGGGGAGTCCT; chemistry not given here)	693.8
N5_1C11 (CTGGGGAGTCCT; chemistry not given here)	484.2
N5_1D1 (CTGGGGAGTCCT; chemistry not given here)	321.6
N5_1D2 (CTGGGGAGTCCT; chemistry not given here)	561.3
N5_1D3 (CTGGGGAGTCCT; chemistry not given here)	697.1
N5_1D4 (CTGGGGAGTCCT; chemistry not given here)	522.9
N5_1D5 (CTGGGGAGTCCT; chemistry not given here)	841.7
N5_1D6 (CTGGGGAGTCCT; chemistry not given here)	684.9
N5_1D8 (CTGGGGAGTCCT; chemistry not given here)	383.5
N5_1D10 (CTGGGGAGTCCT; chemistry not given here)	762.7
N5_1D11 (CTGGGGAGTCCT; chemistry not given here)	4.8
N5_1D12 (CTGGGGAGTCCT; chemistry not given here)	3.6
N5_1E1 (CTGGGGAGTCCT; chemistry not given here)	566.4
N5_1E2 (CTGGGGAGTCCT; chemistry not given here)	728.6
N5_1E4 (CTGGGGAGTCCT; chemistry not given here)	834.9
N5_1E5 (CTGGGGAGTCCT; chemistry not given here)	681.3
N5_1E6 (CTGGGGAGTCCT; chemistry not given here)	365.1
N5_1E8 (CTGGGGAGTCCT; chemistry not given here)	691.8
N5_1E9 (CTGGGGAGTCCT; chemistry not given here)	699.7
N5_1E10 (CTGGGGAGTCCT; chemistry not given here)	1026.1
N5_1E11 (CTGGGGAGTCCT; chemistry not given here)	1095.6
N5_1E12 (CTGGGGAGTCCT; chemistry not given here)	1588.2

Substance	Fold (induction of luciferase gene expression) [fold]
N5_1F1 (CTGGGGAGTCCT; chemistry not given here)	557.2
N5_1F2 (CTGGGGAGTCCT; chemistry not given here)	415.1
N5_1F3 (CTGGGGAGTCCT; chemistry not given here)	212.8
N5_1F4 (CTGGGGAGTCCT; chemistry not given here)	958.5
N5_1F6 (CTGGGGAGTCCT; chemistry not given here)	247.6
N5_1F9 (CTGGGGAGTCCT; chemistry not given here)	685.1
N5_1F10 (CTGGGGAGTCCT; chemistry not given here)	1071.3
N5_1F12 (CTGGGGAGTCCT; chemistry not given here)	1057.8
N5_1G2 (CTGGGGAGTCCT; chemistry not given here)	517.7
N5_1G4 (CTGGGGAGTCCT; chemistry not given here)	86.0
N5_1G5 (CTGGGGAGTCCT; chemistry not given here)	804.6
N5_1G6 (CTGGGGAGTCCT; chemistry not given here)	1311.6
N5_1G8 (CTGGGGAGTCCT; chemistry not given here)	888.7
N5_1G9 (CTGGGGAGTCCT; chemistry not given here)	1230.3
N5_1G10 (CTGGGGAGTCCT; chemistry not given here)	1000.2
N5_1G11 (CTGGGGAGTCCT; chemistry not given here)	789.0
N5_1H1 (CTGGGGAGTCCT; chemistry not given here)	84.1
N5_1H2 (CTGGGGAGTCCT; chemistry not given here)	386.6
N5_1H3 (CTGGGGAGTCCT; chemistry not given here)	764.7
N5_1H4 (CTGGGGAGTCCT; chemistry not given here)	482.5
N5_1H6 (CTGGGGAGTCCT; chemistry not given here)	654.9
N5_1H7 (CTGGGGAGTCCT; chemistry not given here)	1032.1
N5_1H8 (CTGGGGAGTCCT; chemistry not given here)	622.6
N5_1H9 (CTGGGGAGTCCT; chemistry not given here)	714.2
N5_1H10 (CTGGGGAGTCCT; chemistry not given here)	781.1

Substance	Fold (induction of luciferase gene expression) [fold]
N5_1H11 (CTGGGGAGTCCT; chemistry not given here)	413.6
N5_2B5 (CTGGGGAGTCCT; chemistry not given here)	1107.3
N5_2B11 (CTGGGGAGTCCT; chemistry not given here)	1009.4
N5_2C2 (CTGGGGAGTCCT; chemistry not given here)	894.7
N5_2C5 (CTGGGGAGTCCT; chemistry not given here)	1055.1
N5_2D8 (CTGGGGAGTCCT; chemistry not given here)	1047.3
N5_2D9 (CTGGGGAGTCCT; chemistry not given here)	735.9
N5_2D10 (CTGGGGAGTCCT; chemistry not given here)	884.5
N5_2E6 (CTGGGGAGTCCT; chemistry not given here)	685.6
N5_2E11 (CTGGGGAGTCCT; chemistry not given here)	1038.1
N5_2F10 (CTGGGGAGTCCT; chemistry not given here)	1014.6
N5_2F12 (CTGGGGAGTCCT; chemistry not given here)	1100.0
N5_2G5 (CTGGGGAGTCCT; chemistry not given here)	715.9
N5_2G10 (CTGGGGAGTCCT; chemistry not given here)	1249.7
N5_3A2 (CTGGGGAGTCCT; chemistry not given here)	718.0
N5_3A3 (CTGGGGAGTCCT; chemistry not given here)	1066.3
N5_3C8 (CTGGGGAGTCCT; chemistry not given here)	835.1
N5_3C10 (CTGGGGAGTCCT; chemistry not given here)	751.6
N5_3D3 (CTGGGGAGTCCT; chemistry not given here)	1222.7
N5_3D8 (CTGGGGAGTCCT; chemistry not given here)	824.4
N5_3F9 (CTGGGGAGTCCT; chemistry not given here)	909.7
N5_3F10 (CTGGGGAGTCCT; chemistry not given here)	894.3
N5_3F11 (CTGGGGAGTCCT; chemistry not given here)	1628.3
